Test results from US9085795B2, “Methods for screening candidate agents for modulating prorenin and renin, assays for detecting prorenin and antibodies” (MOLECULAR INNOVATIONS, INC., priority 2009, dated 2015).
Values joined by “and” are separate entries in the source; they are usually repeats but may differ in a detail not shown here. Identical values can stand only once. Like-named read-outs stand apart in the source and are kept apart here. No end group written: not given here. *: point of attachment. Biotin = O=C1N[C@H]2[C@H](CS[C@H]2CCCCC(=O)*)N1

Legend:
[1] = molecular target: T1, renin (Homo sapiens, UniProt P00797); test: Renin activity assay: cleavage of biotin-[…] by renin, detected with the antibody of the invention on avidin-coated plate; assay type: biochemical; conditions: Renin at 10 ug/ml, aliskiren at 10X excess molar conc.
T1 construct: Renin is produced by cleavage of the 395 amino acid zymogen prorenin
T1 sequence (P00797 67-406): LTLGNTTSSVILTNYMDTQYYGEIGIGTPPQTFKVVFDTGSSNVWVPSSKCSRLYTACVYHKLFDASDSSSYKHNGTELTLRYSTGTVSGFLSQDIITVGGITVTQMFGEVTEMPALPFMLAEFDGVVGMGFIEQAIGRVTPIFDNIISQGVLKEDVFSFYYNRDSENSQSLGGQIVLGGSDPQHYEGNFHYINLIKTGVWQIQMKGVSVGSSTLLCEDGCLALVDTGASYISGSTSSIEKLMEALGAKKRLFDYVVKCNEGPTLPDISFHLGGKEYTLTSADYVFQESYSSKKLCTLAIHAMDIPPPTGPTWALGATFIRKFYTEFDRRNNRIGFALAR
Protocol: In accordance with the invention, renin was preincubated in the presence and absence of aliskiren, a known renin inhibitor for approximately 2 hours at 37° C. in 50 mM HEPES, 2 mM EDTA, 1% DMA, 0.5% BSA, pH 7.0. This mixture of renin +/−aliskiren was then contacted with biotin-[…] and incubated at 37° C. for approximately eighteen hours. The reaction mixture was then added to an avidin-coated microtiter plate and allowed to adhere thereto for 30 minutes at room temperature and then washed three times with wash buffer, containing 10 mM Tris, 150 mM NaCl, 0.1% BSA and 0.05% Tween. Then 100 μl of the antibody of the invention was added to each well of the microtiter plate and incubated for 30 minutes at room temperature and again washed with wash buffer. Then 100 μl of horse radish peroxidase conjugated goat anti-mouse subclass Fc was added to each well, incubated for 30 minutes at room temperature and washed with wash buffer. Then 100 μl of TMB ONE Solution™, available from Promega Corporation of Madison, Wis., was added to all wells, incubated for five minutes at room temperature. The reaction was stopped with 50 μl 1N H2SO4 and read at 450 nm.

[2] = tested on: monoclonal antibody 4B5-E3; conditions: peptides bound to avidin coated plates at 1 μg/ml, absorbance at 450 nm
Protocol: Cell supernatants were loaded on an IMMULON™ (Thermo Fisher Scientific Inc., Waltham, Mass.) strip plate coated with prorenin and blocked. […] Strips were then washed three times, and developed with TMB 1 (Kirkegaard & Perry Laboratories, Inc., Gaithersburg, Md.) substrate for 5 minutes; solution was quenched with 1N H2SO4. The IMMULON™ plate was read on a microtiter plate spectrophotometer with a set absorbance at 450 nm. Optical density (OD) measurements higher than 3.0 were considered positive clones.
These four peptides were bound to avidin coated plates at a concentration of 1 μg/ml and purified monoclonal 4B5-E3 binding was determined per the screening procedure described earlier.

COCCCOc1cc(C[C@@H](C[C@H](N)[C@@H](O)C[C@H](C(=O)NCC(C)(C)C(N)=O)C(C)C)C(C)C)ccc1OC [aliskiren]
inhibition of cleavage of the substrate peptide by renin [1]: inhibition of cleavage of the substrate peptide by renin
signal read at 450 nM (uncleaved substrate peptide), renin + inhibitor ([1]; preincubated approximately 2 hours at 37° C., substrate approximately eighteen hours): 3.363 and 3.481 and 3.596 and 3.824 and 3.754 and 3.497

Biotin-ARLGPEW [Peptide 4.6]
binding of peptide to monoclonal antibody 4B5-E3 [2]: does not bind monoclonal

Biotin-ARLGPEWS [Peptide 4.5]
binding of peptide to monoclonal antibody 4B5-E3 [2]: binds monoclonal
binding of peptide to monoclonal antibody 4B5-E3 ([2]; listed as ARLGPEWS): bound to the monoclonal antibody

Biotin-ARLGPEWSQ [Peptide 4.4]
binding of peptide to monoclonal antibody 4B5-E3 [2]: binds monoclonal
binding of peptide to monoclonal antibody 4B5-E3 ([2]; listed as ARLGPEWSQ): bound to the monoclonal antibody

Biotin-ARLGPEWSQPMKR [Peptide 4.1]
binding of peptide to monoclonal antibody 4B5-E3 [2]: Biotin-ARLGPEWSQPMKR (binds monoclonal)

Biotin-GVDMARLGPEWSQPMKR [Peptide 4]
binding of peptide to monoclonal antibody 4B5-E3 [2]: Biotin-GVDMARLGPEWSQPMKR (binds monoclonal)
binding of peptide to monoclonal antibody 4B5-E3 ([2]; listed as peptide 4): positive result

Biotin-LGPEWSQPMKR [Peptide 4.3]
binding of peptide to monoclonal antibody 4B5-E3 [2]: Biotin-LGPEWSQPMKR (does not bind monoclonal)

Biotin-RLGPEWSQPMKR [Peptide 4.2]
binding of peptide to monoclonal antibody 4B5-E3 [2]: Biotin-RLGPEWSQPMKR (binds monoclonal)
